Counter-ions that a name gives are not always drawn.
Assays:
Bek = Bek (Homo sapiens, UniProt P21802); test: Inhibitory activity against Bek-autophosphorylation using ELISA method in OCUM-2MD3 cells; assay type: cell-based; details: 1 hr with compound, read-out: IC50 (concentration necessary for inhibiting 50% of Bek-phosphorylation)
Method in brief: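 Sandwich ELISA (anti-phosphotyrosine capture, anti-Bek detection, peroxidase, 450 nm) measured Bek autophosphorylation in OCUM-2MD3 lysates after 1 hr compound treatment at 37° C in 0.1% serum medium. IC50 derived by scaling between no-drug (100%) and excess positive control at 1000 nM (0%).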

[1] = system: Human gastric cancer cells (OCUM-2MD3); test: Tumor growth inhibitory activity against human gastric cancer cells (OCUM-2MD3) in nude mice (Pharmacological Test Example 3); assay type: in vivo; details: Mus musculus, read-out: TGIR (tumor growth inhibition rate); for inhibition in vivo at 25 mg: 600 h, dose per day 25 mg × 1, oral; for inhibition in vivo at 10 mg: 240 h, dose per day 10 mg × 2, oral
Description: (§1) Human gastric cancer cells (OCUM-2MD3) (kindly provided by Dr. Kosei Hirakawa, Osaka City University) were transplanted into nude mice. […] The test compound suspended in 0.5% methylcellulose was orally administered every day twice a day for 5 days (except for the first day on which the suspension was administered once a day).
(§2) Only 0.5% methylcellulose was administered to the control group in the manner as in the test groups. The tumor growth inhibition rate (TGIR) was calculated as follows: The tumor growth inhibition rate (TGIR)=(1−TX/CX)×100 wherein CX represents the volume of tumor at day X for the control group when the tumor volume at the day of the start of the administration was presumed to be 1; and TX represents the volume of tumor for test compound administration groups.
Tumor growth inhibitory activity was measured in the same manner as in Pharmacological Test Example 2, except that oral administration was carried out once a day or twice a day (except for the first day on which the suspension was administered once a day).

[2] = system: Human gastric cancer cells (OCUM-2MD3); test: Tumor growth inhibitory activity against human gastric cancer cells (OCUM-2MD3) in nude mice (Pharmacological Test Example 2); assay type: in vivo; details: unit dose 10 mg/kg, oral, twice a day for 5 days
Description: as §1, §2

Bek, sequence (P21802 431-767 limits assumed): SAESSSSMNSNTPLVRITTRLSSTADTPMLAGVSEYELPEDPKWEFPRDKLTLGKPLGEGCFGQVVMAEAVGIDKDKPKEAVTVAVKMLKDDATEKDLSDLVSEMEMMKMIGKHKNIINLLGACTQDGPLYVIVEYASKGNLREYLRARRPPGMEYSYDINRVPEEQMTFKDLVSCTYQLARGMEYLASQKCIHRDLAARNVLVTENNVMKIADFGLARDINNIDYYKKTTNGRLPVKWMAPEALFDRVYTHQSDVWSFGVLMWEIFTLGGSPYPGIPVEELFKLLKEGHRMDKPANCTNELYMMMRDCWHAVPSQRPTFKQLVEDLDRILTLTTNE

Row | Structure (SMILES) | IC50 (Bek) | inhibition in vivo at 25 mg [1] | inhibition in vivo at 10 mg [1] | inhibition in vivo at 30 mg ([1]; 720 h, dose per day 30 mg × 2, oral) | TGIR (tumor growth inhibition rate) [2]
1 | COc1cc2c(Oc3ccc(NC(=O)NCCC(C)(C)C)c(F)c3)ccnc2cc1OCCN1CC(C)OC(C)C1 (stereo not drawn) [Compound 97, 1-(3,3-Dimethyl-butyl)-3-(4-{7-[2-(2,6-dimethyl-morpholin-4-yl)-ethoxy]-6-methoxy-quinolin-4-yloxy}-2-fluoro-phenyl)-urea] | < 10 nM | 48% |  |  | 
2 | COc1cc2c(Oc3ccc(NC(=O)NCCC(C)(C)C)c(Cl)c3)ccnc2cc1OCCN1CCCCC1 [Compound 100, 1-{2-Chloro-4-[6-methoxy-7-(2-piperidin-1-yl-ethoxy)-quinolin-4-yloxy]-phenyl}-3-(3,3-dimethyl-butyl)-urea] | 175 nM | 43% |  |  | 
3 | COc1cc2nccc(Oc3ccc(NC(=O)NCCC(C)(C)C)cc3)c2cc1OCCN1CCOCC1 [Compound 90, 1-(3,3-Dimethyl-butyl)-3-{4-[7-methoxy-6-(2-morpholin-4-yl-ethoxy)-quinolin-4-yloxy]-phenyl}-urea] | 12.6 nM |  | 36% |  | 
4 | COc1cc2c(Oc3ccc(NC(=O)NCCC(C)(C)C)c(F)c3)ccnc2cc1OCCN1CCCCC1 [Compound 99, 1-(3,3-Dimethyl-butyl)-3-{2-fluoro-4-[6-methoxy-7-(2-piperidin-1-yl-ethoxy)-quinolin-4-yloxy]-phenyl}-urea] | 28.6 nM | 63% |  |  | 
5 | COc1cc2c(Oc3ccc(NC(=O)NCCC(C)(C)C)c(Cl)c3)ccnc2cc1OCCN1CCOCC1 [Compound 114, 1-{2-Chloro-4-[6-methoxy-7-(2-morpholin-4-yl-ethoxy)-quinolin-4-yloxy]-phenyl}-3-(3,3-dimethyl-butyl)-urea] | 20.1 nM |  |  | 48% | 
6 | COc1cc2c(Oc3ccc(NC(=O)NCCC(C)(C)C)c(F)c3)ccnc2cc1OCCN1CCOCC1 [Compound 87, 1-(3,3-Dimethyl-butyl)-3-{2-fluoro-4-[6-methoxy-7-(2-morpholin-4-yl-ethoxy)-quinolin-4-yloxy]-phenyl}-urea] | < 10 nM | 54% | 33% |  | 
7 | COc1cc2c(Oc3ccc(Nc4ccc(C(C)(C)C)cc4)cc3)ccnc2cc1OCC(O)CN1CCOCC1 (stereo not drawn) [Compound 59 (hydrochloride)] |  |  |  |  | 16%
8 | COc1cc2c(Oc3ccc(NC(=O)NCCC(C)(C)C)cc3)ccnc2cc1OCCN1CCCCC1 [Compound 91, 1-(3,3-Dimethyl-butyl)-3-{4-[6-methoxy-7-(2-piperidin-1-yl-ethoxy)-quinolin-4-yloxy]-phenyl}-urea hydrochloride] | 18.4 nM | 28% |  |  | 
9 | COc1cc2c(Oc3ccc(Nc4ccc(C(C)(C)C)cc4)cc3)ccnc2cc1OCCN1CCOCC1 [Compound 37 (hydrochloride)] |  |  |  |  | 35%
10 | COc1cc2c(Oc3ccc(NC(=O)NCCC(C)(C)C)cc3F)ccnc2cc1OCCN1CCOCC1 [Compound 98, 1-(3,3-Dimethyl-butyl)-3-{3-fluoro-4-[6-methoxy-7-(2-morpholin-4-yl-ethoxy)-quinolin-4-yloxy]-phenyl}-urea] | < 10 nM | 48% |  |  | 
11 | COc1cc2c(Oc3ccc(NC(=O)NCCC(C)(C)C)c(F)c3)ccnc2cc1OCC(O)CN1CCOCC1 (stereo not drawn) [Compound 89, 1-(3,3-Dimethyl-butyl)-3-{2-fluoro-4-[7-(2-hydroxy-3-morpholin-4-yl-propoxy)-6-methoxy-quinolin-4-yloxy]-phenyl}-urea hydrochloride] | < 10 nM |  | 29% |  | 

Source: patent publication US7495104B2, “Quinoline or quinazoline derivatives inhibiting auto-phosphorylation of fibroblast growth factor receptors” (Kirin Beer Kabushiki Kaisha, priority 2001, dated 2009)
